pIC50: −log10 of the molar value.

This test concerns RAW264.7. The test can be described thus: Antiinflammatory activity in mouse RAW264.7 cells assessed as inhibition of LPS-induced NO production after 24 hrs by Griess assay. In kind it is functional, cell-based. Particulars: RAW264.7, 24 h. (Griess reagent forms a coloured azo dye with nitrite.)

On to `CC1(C)O[C@](C(=O)O)([C@H]2CC[C@]3(C)[C@@H]2CC[C@@H]2[C@@]4(C)CC[C@H](O[C@@H]5O[C@H](CO)[C@@H](O)[C@H](O)[C@H]5O)[C@](C)(CO)[C@@H]4CC[C@]23C)C[C@H](O)[C@@H]1O` [GENTIRIGEOSIDE A], for which the pIC50 – broadly, −log10 of the IC50, conventionally taken in molar units – is 5.18.
As to `COc1ccc2c(c1)c(CC(=O)O)c(C)n2C(=O)c1ccc(Cl)cc1` [INDOMETHACIN], the negative logarithm of the IC50 (pIC50) is 5.90.

For the origin of these results see ChEMBL document CHEMBL3286241, “Dammarane-type triterpenoids from Gentianella azurea” (J Nat Prod, 2014).
